Source: patent US20240174605A1, “ARYLSULFONAMIDES AS OREXIN RECEPTOR AGONISTS” (RESEARCH TRIANGLE INSTITUTE, priority 2021, published 2024)
Values after ≈ are worked out from the molar mass of the structure shown. “Also recorded” adds a separate entry of the source. Where two headings read alike, the source gives them in different places. Blank lines part the entries; values can stand above or below the molecule they belong to.

Legend:
[1] = target: T1, human OX2 receptor (Homo sapiens, UniProt O43614); assay: OX2R calcium mobilization assay; format: cell-based; conditions: for Emax: Table 10; for agonist potency at OX2R, in words: calcium mobilization
T1 construct: host or cells: CHO RD-HGA16 cells
T1 sequence (O43614 1-444): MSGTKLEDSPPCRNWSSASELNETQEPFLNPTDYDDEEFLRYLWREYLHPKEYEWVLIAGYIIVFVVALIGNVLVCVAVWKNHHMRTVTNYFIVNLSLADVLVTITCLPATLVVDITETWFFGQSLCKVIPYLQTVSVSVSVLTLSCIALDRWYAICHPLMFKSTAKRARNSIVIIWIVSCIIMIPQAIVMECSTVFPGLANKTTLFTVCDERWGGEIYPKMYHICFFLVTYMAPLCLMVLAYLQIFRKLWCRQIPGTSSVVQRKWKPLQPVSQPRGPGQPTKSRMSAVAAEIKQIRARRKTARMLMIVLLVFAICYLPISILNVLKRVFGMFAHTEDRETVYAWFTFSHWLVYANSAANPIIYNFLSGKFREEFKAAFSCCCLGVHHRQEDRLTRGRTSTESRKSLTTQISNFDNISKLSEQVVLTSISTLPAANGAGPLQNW
Description: (§1) Activity of the target compounds at the human OX1 and OX2 receptors was determined utilizing CHO RD-HGA16 cells (Molecular Devices) engineered to stably express either the human OX1 or the human OX2 receptor. Cells were maintained in Ham's F12 supplemented with 10% fetal bovine serum, 100 units of penicillin and streptomycin, and 100 μg/mL normocin™. To conduct the assay, cells were plated at 25,000 cells/well and incubated overnight at 37° C., 5% CO2. The next day, cells were washed with assay buffer and loaded with Calcium 5 dye (Molecular Devices). After 45 minutes, cells were pretreated with a 9% DMSO solution for 15 minutes.
(§2) All of the synthesized compounds were characterized for their agonist potencies in the calcium mobilization assays using CHO cells overexpressing either the OX1R or OX2R. Reference is made to German, N. A.; Decker, A. M.; Gilmour, B. P.; Thomas, B. F.; Zhang, Y., Truncated Orexin Peptides: Structure-Activity Relationship Studies.

[2] = target: σ1 (Homo sapiens, UniProt Q99720); assay: Target selectivity: σ1; format: binding
[3] = Metabolic stability in rat liver microsomes (RLM); format: in vitro ADME; conditions: for metabolic stability in rat liver microsomes, in words: RLM; for half-life: rat, rat liver microsomes, read-out: t1/2 (RLM)
From the text: (§3) The main structural difference is the pyridyl group connected to the sulfonamide in RTIOXA-47, as compared to the other 3 compounds. The replacement of a phenyl group with a pyridyl reduced the electron density of this aromatic ring.

[4] = Aqueous solubility at pH 2; format: physicochemical; conditions: aqueous medium at pH 2, pH 2, simulated gastric fluid
From the text: as §3

[5] = system: wild-type mice; conditions: 40 mg/kg i.p., salt form; cited from earlier work
[6] = target: T2, OX1R (Homo sapiens, UniProt O43613); assay: OX1R calcium mobilization assay; format: cell-based; set-up: host or cells: CHO RD-HGA16 cells; conditions: for OX1/OX2: ratio of OX1 to OX2 potency value; for agonist potency at OX1R, in words: calcium mobilization
T2 sequence (O43613 1-425): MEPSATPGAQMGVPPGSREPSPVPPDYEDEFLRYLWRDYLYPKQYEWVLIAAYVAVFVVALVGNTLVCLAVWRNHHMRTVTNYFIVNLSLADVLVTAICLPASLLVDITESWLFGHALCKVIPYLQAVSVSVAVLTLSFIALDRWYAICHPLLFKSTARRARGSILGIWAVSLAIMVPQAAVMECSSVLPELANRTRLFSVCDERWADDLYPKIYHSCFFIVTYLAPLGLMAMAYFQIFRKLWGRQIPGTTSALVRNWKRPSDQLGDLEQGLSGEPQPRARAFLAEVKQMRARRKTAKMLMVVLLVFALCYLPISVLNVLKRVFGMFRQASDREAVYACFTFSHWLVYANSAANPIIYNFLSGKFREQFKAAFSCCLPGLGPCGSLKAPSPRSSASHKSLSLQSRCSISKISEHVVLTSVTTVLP
Description: as §1, §2

[7] = Half-life in vivo; conditions: read-out: t1/2 (in vivo) (converted)
[8] = target: T2, OX1R; conditions: literature; cited from earlier work
[9] = literature (Turku et al. 2017); cited from earlier work
[10] = target: both orexin receptors; conditions: literature (Turku et al. 2017); cited from earlier work
[11] = CHO RD-HGA16 cells expressing human OX2, calcium mobilization, read-out: EC50 (OX2)
[12] = CHO RD-HGA16 cells expressing human OX1, calcium mobilization, read-out: EC50 (OX1)

σ1, sequence (Q99720 whole entry): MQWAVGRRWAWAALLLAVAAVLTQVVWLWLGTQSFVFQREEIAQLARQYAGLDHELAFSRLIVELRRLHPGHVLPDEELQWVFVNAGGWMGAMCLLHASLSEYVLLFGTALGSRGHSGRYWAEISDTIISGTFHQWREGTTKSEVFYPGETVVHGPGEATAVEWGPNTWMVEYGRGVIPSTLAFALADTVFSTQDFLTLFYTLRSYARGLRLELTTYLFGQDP

- Emax [1]: 94%
- Ki [2]: 2.5 µM
- metabolic stability in rat liver microsomes, in words [3]: modest metabolic stability
- half-life [3]: < 1 min
- solubility [4]: > 400 µM
- Emax ([6]; Table 10): 55%
SMILES: COc1ccc(-c2cccc(C(=O)N(C)C)c2)cc1S(=O)(=O)Nc1cccc(NCCNC(=O)c2ccccc2N(C)C)c1 [Compound 1, reference compound]
- body temperature [5]: without affecting body temperature

- EC50 [1, 11]: 0.252 µM
SMILES: COc1ccc(-c2cccc(C(=O)N3CCCC3)c2)cc1S(=O)(=O)Nc1cccc(NCCNC(=O)c2ccccc2N(C)C)c1 [Compound 3]

- EC50 [6, 12]: > 10 µM
- OX1/OX2 [6]: >20
SMILES: CCCNC(=O)c1cccc(-c2ccc(OC)c(S(=O)(=O)Nc3cccc(NCCNC(=O)c4ccccc4N(C)C)c3)c2)c1 [Compound 4]

- EC50 [6, 12]: 0.737 µM
- OX1/OX2 [6]: 3.32
SMILES: CCN(CC)C(=O)c1cccc(-c2ccc(OC)c(S(=O)(=O)Nc3cccc(NCCNC(=O)c4ccccc4N(C)C)c3)c2)c1 [Compound 5]

- EC50 [1, 11]: > 10 µM
- EC50 [6, 12]: > 10 µM
SMILES: COc1ccc(-c2cccc(C(C)C)c2)cc1S(=O)(=O)Nc1cccc(NCCNC(=O)c2ccccc2N(C)C)c1 [Compound 6]

- EC50 [1, 11]: 2.13 µM
- EC50 [6, 12]: > 10 µM
- OX1/OX2 [6]: >20
SMILES: COc1ccc(-c2cccc(N(C)C)c2)cc1S(=O)(=O)Nc1cccc(NCCNC(=O)c2ccccc2N(C)C)c1 [Compound 7]

SMILES: CCN(CC)c1cccc(-c2ccc(OC)c(S(=O)(=O)Nc3cccc(NCCNC(=O)c4ccccc4N(C)C)c3)c2)c1 [Compound 8]
- EC50 [6, 12]: > 10 µM
- OX1/OX2 [6]: >20

- EC50 [1, 11]: > 10 µM
- EC50 [6, 12]: > 10 µM
SMILES: CCCN(CCC)c1cccc(-c2ccc(OC)c(S(=O)(=O)Nc3cccc(NCCNC(=O)c4ccccc4N(C)C)c3)c2)c1 [Compound 9]

- EC50 [1, 11]: > 10 µM
- EC50 [6, 12]: > 10 µM
SMILES: COc1ccc(-c2cccc(C(C)(C)C)c2)cc1S(=O)(=O)Nc1cccc(NCCNC(=O)c2ccccc2N(C)C)c1 [Compound 10]

- EC50 [1, 11]: > 10 µM
- EC50 [6, 12]: > 10 µM
SMILES: COc1ccc(-c2cccc(C(F)(F)F)c2)cc1S(=O)(=O)Nc1cccc(NCCNC(=O)c2ccccc2N(C)C)c1 [Compound 11]

SMILES: COc1ccc(-c2cccc(C(=O)N(C)C)c2)cc1S(=O)(=O)Nc1cccc(N2CCN(C(=O)c3ccccc3N(C)C)CC2)c1 [Compound 17]
- EC50 [1, 11]: > 10 µM
- EC50 [6, 12]: > 10 µM

- EC50 [1, 11]: > 10 µM
- EC50 [6, 12]: > 10 µM
SMILES: COc1ccc(-c2cccc(C(=O)N(C)C)c2)cc1S(=O)(=O)Nc1cccc(N2CCN(C(=O)c3cccc(C)c3)CC2)c1 [Compound 18]

- agonist potency at OX2R, in words [1]: sharp decrease of potency
- agonist potency at OX1R, in words [6]: complete loss of potency
- OX1/OX2 [6]: >10.0
SMILES: COc1ccc(-c2cccc(C(=O)NCCN(C)C)c2)cc1S(=O)(=O)Nc1cccc(NCCNC(=O)c2cccc(C)c2)c1 [Compound 32]

- OX1/OX2 [6]: 4.69
SMILES: COc1ccc(-c2cccc(C(=O)N(C)c3ccccn3)c2)cc1S(=O)(=O)Nc1cccc(NCCNC(=O)c2cccc(C)c2)c1 [Compound 33]

- agonist potency at OX1R, in words [6]: complete loss of the OX1R potency
- OX1/OX2 [6]: >20.0
SMILES: COc1ccc(-c2cccc(C(=O)NCc3ccccn3)c2)cc1S(=O)(=O)Nc1cccc(NCCNC(=O)c2cccc(C)c2)c1 [Compound 36]

- Emax [1]: 96%
- agonist potency at OX2R, in words [1]: high and equal potency
- metabolic stability in rat liver microsomes, in words [3]: modest metabolic stability
- half-life [3]: 1.9 min
- solubility [4]: 313 µM (≈ 208 µg/mL)
- Emax ([6]; Table 10): 105%
- EC50 ([6]; Table 10, read-out: OX1R EC50): 0.024 µM
- agonist potency at OX1R, in words [6]: high and equal potency
- OX1/OX2 [6]: 1.0
SMILES: COc1ccc(-c2cccc(C(=O)N(C)Cc3ccncc3)c2)cc1S(=O)(=O)Nc1cccc(NCCNC(=O)c2cccc(C)c2)c1 [Compound 38]

- OX1/OX2 [6]: 2.78
SMILES: COc1ccc(-c2cccc(C(=O)N(C)CCc3ccccn3)c2)cc1S(=O)(=O)Nc1cccc(NCCNC(=O)c2cccc(C)c2)c1 [Compound 39]

SMILES: COc1ccc(-c2cccc(C(=O)N(C)C)c2)cc1C(=O)Nc1cccc(NCCNC(=O)c2cccc(C)c2)c1 [Compound 41]
- agonist potency at OX1R, in words [6]: inactive

SMILES: COc1ccc(-c2cccc(C(=O)N(C)Cc3ccncc3)c2)cc1-c1nnc(Nc2cccc(NCCNC(=O)c3cccc(C)c3)c2)s1 [Compound 43]
- agonist potency at OX2R, in words [1]: inactive
- agonist potency at OX1R, in words [6]: inactive

SMILES: COc1ccc(-c2cccc(C(=O)N(C)Cc3ccncc3)c2)cc1-c1nnc(Nc2cccc(OCCNC(=O)c3cccc(C)c3)c2)s1 [Compound 44]
- agonist potency at OX2R, in words [1]: inactive
- agonist potency at OX1R, in words [6]: inactive

SMILES: COc1ccc(-c2cccc(C(=O)N(C)Cc3ccncc3)c2)cc1S(=O)(=O)Nc1cncc(OCCNC(=O)c2cccc(C)c2)c1 [Compound 55]
- OX1/OX2 [6]: 1.52

- Emax [1]: 94%
- metabolic stability in rat liver microsomes, in words [3]: modest metabolic stability
- half-life [3]: 1.8 min
- solubility [4]: > 400 µM
- Emax ([6]; Table 10): 95%
SMILES: COc1ccc(-c2cccc(C(=O)N(C)Cc3ccncc3)n2)cc1S(=O)(=O)Nc1cccc(NCCNC(=O)c2cccc(C)c2)c1 [Compound 59]

- Emax [1]: 99%
- half-life [7]: 318 min
- half-life [3]: 39.7 min
- solubility [4]: > 400 µM
- Emax ([6]; Table 10): 101%
SMILES: COc1ccc(-c2cccc(C(=O)N(C)Cc3ccncc3)c2)cc1S(=O)(=O)Nc1cncc(NCCNC(=O)c2cccc(C)c2)c1 [Compound 61]
- metabolic stability in rat liver microsomes, in words ([3]; listed as RTIOXA-47): significantly improved half-life; also recorded: significantly improved metabolic stability

- OX1/OX2 [6]: 0.48
SMILES: CCC(=O)NCCNc1cncc(NS(=O)(=O)c2cc(-c3cccc(C(=O)N(C)Cc4ccncc4)c3)ccc2OC)c1 [Compound 63]

- OX1/OX2 [6]: 0.46
SMILES: COc1ccc(-c2cccc(C(=O)N(C)Cc3ccncc3)c2)cc1S(=O)(=O)Nc1cncc(NCCNC(=O)C(C)C)c1 [Compound 64]

- OX1/OX2 [6]: 0.60
SMILES: CCCC(=O)NCCNc1cncc(NS(=O)(=O)c2cc(-c3cccc(C(=O)N(C)Cc4ccncc4)c3)ccc2OC)c1 [Compound 65]

- OX1/OX2 [6]: 0.33
SMILES: CCCCC(=O)NCCNc1cncc(NS(=O)(=O)c2cc(-c3cccc(C(=O)N(C)Cc4ccncc4)c3)ccc2OC)c1 [Compound 66]

SMILES: CCCCCC(=O)NCCNc1cncc(NS(=O)(=O)c2cc(-c3cccc(C(=O)N(C)Cc4ccncc4)c3)ccc2OC)c1 [Compound 67]
- EC50 [1]: 0.0997 µM
- EC50 [6]: 0.0333 µM
- OX1/OX2 [6]: 0.33

- OX1/OX2 [6]: 0.44
SMILES: COc1ccc(-c2cccc(C(=O)N(C)Cc3ccncc3)c2)cc1S(=O)(=O)Nc1cncc(NCCNC(=O)C2CCCCC2)c1 [Compound 68]

- OX1/OX2 [6]: 0.57
SMILES: COc1ccc(-c2cccc(C(=O)N(C)Cc3ccncc3)c2)cc1S(=O)(=O)Nc1cncc(NCCNC(=O)CC2CCCC2)c1 [Compound 69]

- OX1/OX2 [6]: 0.72
SMILES: COc1ccc(-c2cccc(C(=O)N(C)Cc3ccncc3)c2)cc1S(=O)(=O)Nc1cncc(NCCNC(=O)CCC2CCCCC2)c1 [Compound 70]

SMILES: COC(=O)N1CCC[C@H](NS(C)(=O)=O)[C@@H]1CO[C@H]1CC[C@@H](c2ccccc2)CC1 [TAK-925]
- activity at OX1R, in words [8]: little to no activity

SMILES: Cc1ccc(Cn2c(=N)n(CC(O)c3ccc(Cl)c(Cl)c3)c3ccccc32)cc1 (stereo not drawn) [Yan7874]
- cytotoxicity [9]: orexin receptor independent cytotoxicity
- EC50 [10]: > 3.2 µM
